Test results from patent publication US10751339B2, “Substituted aminopyrimidine compounds and methods of use” (SUNSHINE LAKE PHARMA CO., LTD., priority 2018, dated 2020).

What was measured:
[1] = target: PI3K (p110α/p85α) (h) (Homo sapiens (Human), UniProt P42336); experiment: PI3K (p110α/p85α) (h) non-radioactive HTRF kinase assay; type: biochemical
Experimental: (§1) PI3K (p110α/p85α) (h) is incubated in assay buffer containing 10 μM phosphatidylinositol 4,5-bisphosphate and MgATP (concentration as required). The reaction is initiated by the addition of the ATP solution. After incubation for 30 minutes at room temperature, the reaction is stopped by the addition of stop solution containing EDTA and biotinylated phosphatidylinositol-3,4,5-trisphosphate. Finally, detection buffer is added, which contains europium-labelled anti-GST monoclonal antibody, GST-tagged GRP1 PH domain and streptavidin allophycocyanin. The plate is then read in timeresolved fluorescence mode and the homogenous time-resolved fluorescence (HTRF) signal is determined according to the formula HTRF=10000×(Em665 nm/Em620 nm).
(§2) The kinase assays described herein were performed at Millipore UK Ltd, Dundee Technology Park, Dundee DD2 1SW, UK.

[2] = target: PI3K (p110δ/p85α) (h) (Homo sapiens (Human), UniProt O00329); experiment: PI3K (p110δ/p85α) (h) non-radioactive HTRF kinase assay; type: biochemical
Experimental: as §1, with “(p110δ/p85α)” for “(p110α/p85α)”, “phosphatidylinositol-4, 5-bisphosphate” for “phosphatidylinositol 4,5-bisphosphate”, “MgATP mix.” for “ATP solution.”, “streptavidin-allophycocyanin.” for “streptavidin allophycocyanin.”
as §2

[3] = target: PI3K (p120γ) (h) (Homo sapiens (Human), UniProt P48736); experiment: PI3K (p120γ) (h) non-radioactive HTRF kinase assay; type: biochemical
Experimental: as §1, with “(p120γ)” for “(p110α/p85α)”, “phosphatidylinositol-4, 5-bisphosphate” for “phosphatidylinositol 4,5-bisphosphate”, “MgATP mix.” for “ATP solution.”, “streptavidin-allophycocyanin.” for “streptavidin allophycocyanin.”
as §2

[4] = target: PI3K (p110β/p85α) (h) (Homo sapiens (Human), UniProt P42338); experiment: PI3K (p110β/p85α) (h) non-radioactive HTRF kinase assay; type: biochemical
Experimental: as §1, with “(p110β/p85α)” for “(p110α/p85α)”, “phosphatidylinositol-4,5-bisphosphate” for “phosphatidylinositol 4,5-bisphosphate”, “MgATP mix.” for “ATP solution.”, “streptavidin-allophycocyanin.” for “streptavidin allophycocyanin.”
as §2

[5] = Compound stability in human liver microsomes; type: in vitro ADME; conditions: pH 7.4; for CLint scaled at 5 μM: liver microsomes, in vivo CLint extrapolated from human liver microsome incubation; for half-life at 5 μM: human liver microsomes 0.5 mg protein/mL, compound 5 μM, NADPH, 37° C., read-out: Human T1/2
Experimental: (§3) Human or rat liver microsomes incubations were conducted in duplicate in polypropylene tubes. The typical incubation mixtures consisted of human or rat liver microsomes (0.5 mg protein/mL), compounds of interest (5 μM) and NADPH (1.0 mM) in a total volume of 200 μL potassium phosphate buffer (PBS, 100 mM, pH 7.4). Compounds were dissolved in DMSO and diluted with PBS such that the final concentration of DMSO was 0.05%. The enzymatic reactions were commenced with the addition of protein after a 3-min preincubation and incubated in a water bath open to the air at 37° C. Reactions were terminated at various time points (0, 5, 10, 15, 30, 60 min) by adding equal volume of ice-cold acetonitrile. The samples were stored at −80° C. until LC/MS/MS assays.
(§4) The concentrations of compounds in the incubation mixtures of human or rat liver microsomes were determined by a LC/MS/MS method. The ranges of the linearity in the concentration range were determined for each tested compounds.
(§5) A parallel incubation was performed using denatured microsomes as the negative control, and reactions were terminated at various time points (0, 15, 60 min) after incubation at 37° C.
(§6) Dextromethorphan (70 μM) was selected as the positive control, and reactions were terminated at various time points (0, 5, 10, 15, 30, 60 min) after incubation at 37° C. Both positive and negative control samples were included in each assay to ensure the integrity of the microsomal incubation system.
(§7) The concentrations of compounds in human or rat liver microsome incubations were plotted as a percentage of the relevant zero time point control for each reaction.

[6] = Compound stability in rat liver microsomes; type: in vitro ADME; conditions: pH 7.4; for CLint scaled at 5 μM: liver microsomes, in vivo CLint extrapolated from rat liver microsome incubation; for half-life at 5 μM: rat liver microsomes 0.5 mg protein/mL, compound 5 μM, NADPH, 37° C., read-out: Rat T1/2
Experimental: as §3, §4, §5, §6, §7

PI3K (p120γ) (h), sequence (P48736 whole entry): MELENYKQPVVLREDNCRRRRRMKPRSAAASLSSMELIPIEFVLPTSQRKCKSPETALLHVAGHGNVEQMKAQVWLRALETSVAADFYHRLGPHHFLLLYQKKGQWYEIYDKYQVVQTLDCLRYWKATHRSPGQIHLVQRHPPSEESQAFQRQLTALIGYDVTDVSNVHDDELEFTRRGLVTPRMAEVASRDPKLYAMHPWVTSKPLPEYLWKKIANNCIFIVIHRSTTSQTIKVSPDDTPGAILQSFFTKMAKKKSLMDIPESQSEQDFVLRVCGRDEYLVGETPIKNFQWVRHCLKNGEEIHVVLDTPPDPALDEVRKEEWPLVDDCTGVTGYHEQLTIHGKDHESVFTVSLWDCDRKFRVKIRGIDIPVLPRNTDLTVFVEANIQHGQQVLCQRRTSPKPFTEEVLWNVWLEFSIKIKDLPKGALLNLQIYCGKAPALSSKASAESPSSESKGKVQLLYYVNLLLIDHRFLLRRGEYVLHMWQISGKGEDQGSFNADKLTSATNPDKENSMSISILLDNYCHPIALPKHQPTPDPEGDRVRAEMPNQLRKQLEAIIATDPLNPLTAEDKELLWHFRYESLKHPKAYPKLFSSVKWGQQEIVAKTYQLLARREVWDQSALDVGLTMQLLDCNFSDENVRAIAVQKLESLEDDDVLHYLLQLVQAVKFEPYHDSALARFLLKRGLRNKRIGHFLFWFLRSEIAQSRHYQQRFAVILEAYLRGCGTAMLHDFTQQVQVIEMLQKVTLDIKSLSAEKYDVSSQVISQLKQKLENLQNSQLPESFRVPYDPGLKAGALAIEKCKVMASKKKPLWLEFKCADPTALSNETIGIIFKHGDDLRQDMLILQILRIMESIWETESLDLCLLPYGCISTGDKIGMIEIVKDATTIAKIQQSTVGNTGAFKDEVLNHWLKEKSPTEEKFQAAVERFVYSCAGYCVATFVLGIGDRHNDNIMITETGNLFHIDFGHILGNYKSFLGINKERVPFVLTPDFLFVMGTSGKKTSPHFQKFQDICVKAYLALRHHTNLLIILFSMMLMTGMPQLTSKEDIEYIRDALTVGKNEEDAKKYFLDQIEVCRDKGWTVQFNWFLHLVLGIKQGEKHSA
PI3K (p110δ/p85α) (h), sequence (O00329 whole entry): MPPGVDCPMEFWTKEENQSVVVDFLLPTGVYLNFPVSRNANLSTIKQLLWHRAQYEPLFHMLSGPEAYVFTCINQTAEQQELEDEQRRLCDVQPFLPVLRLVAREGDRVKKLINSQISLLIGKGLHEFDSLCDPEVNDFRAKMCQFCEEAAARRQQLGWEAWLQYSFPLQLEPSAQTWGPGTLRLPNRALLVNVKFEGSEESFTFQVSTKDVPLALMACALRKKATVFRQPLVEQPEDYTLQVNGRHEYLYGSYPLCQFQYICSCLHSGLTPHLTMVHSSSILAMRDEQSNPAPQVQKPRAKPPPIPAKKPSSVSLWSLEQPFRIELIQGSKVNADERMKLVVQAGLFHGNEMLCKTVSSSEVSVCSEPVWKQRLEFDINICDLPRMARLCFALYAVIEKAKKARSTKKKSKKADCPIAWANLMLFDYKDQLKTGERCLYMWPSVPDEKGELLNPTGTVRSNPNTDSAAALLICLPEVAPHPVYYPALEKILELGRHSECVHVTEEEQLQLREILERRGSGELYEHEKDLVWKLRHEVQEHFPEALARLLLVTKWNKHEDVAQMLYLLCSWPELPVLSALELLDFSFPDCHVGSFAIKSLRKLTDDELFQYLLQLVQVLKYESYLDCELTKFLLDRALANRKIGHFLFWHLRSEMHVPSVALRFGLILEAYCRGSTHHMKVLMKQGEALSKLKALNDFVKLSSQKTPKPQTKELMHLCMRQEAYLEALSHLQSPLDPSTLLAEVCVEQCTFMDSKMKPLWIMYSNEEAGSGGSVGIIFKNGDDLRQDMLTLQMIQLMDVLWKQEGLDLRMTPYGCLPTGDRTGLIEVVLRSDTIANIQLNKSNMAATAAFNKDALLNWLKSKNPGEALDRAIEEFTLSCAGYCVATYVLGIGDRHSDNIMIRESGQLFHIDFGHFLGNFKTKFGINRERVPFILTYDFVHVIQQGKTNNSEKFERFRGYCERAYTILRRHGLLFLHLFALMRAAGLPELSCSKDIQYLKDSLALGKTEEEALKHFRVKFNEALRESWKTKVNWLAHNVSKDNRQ
PI3K (p110δ/p85α) (h), sequence (P27986 whole entry partner): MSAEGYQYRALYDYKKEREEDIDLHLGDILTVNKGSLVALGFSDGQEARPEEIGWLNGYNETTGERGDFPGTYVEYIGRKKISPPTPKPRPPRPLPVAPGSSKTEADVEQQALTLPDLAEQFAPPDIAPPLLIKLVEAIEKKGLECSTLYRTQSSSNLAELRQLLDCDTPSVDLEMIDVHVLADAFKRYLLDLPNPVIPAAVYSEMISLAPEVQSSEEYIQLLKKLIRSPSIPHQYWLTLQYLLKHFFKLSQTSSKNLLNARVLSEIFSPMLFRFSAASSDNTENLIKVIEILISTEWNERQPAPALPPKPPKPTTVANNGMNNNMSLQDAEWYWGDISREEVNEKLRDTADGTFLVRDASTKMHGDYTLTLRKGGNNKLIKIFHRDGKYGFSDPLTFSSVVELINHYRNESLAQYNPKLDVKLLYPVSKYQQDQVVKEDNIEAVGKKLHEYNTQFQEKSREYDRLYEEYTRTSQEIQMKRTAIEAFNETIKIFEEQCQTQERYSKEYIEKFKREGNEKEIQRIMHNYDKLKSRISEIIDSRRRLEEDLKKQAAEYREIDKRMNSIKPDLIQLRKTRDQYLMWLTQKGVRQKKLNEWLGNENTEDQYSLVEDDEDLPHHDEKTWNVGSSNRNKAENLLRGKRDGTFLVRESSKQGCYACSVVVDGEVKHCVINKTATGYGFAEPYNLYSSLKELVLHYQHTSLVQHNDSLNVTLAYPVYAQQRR
PI3K (p110β/p85α) (h), sequence (P42338 whole entry): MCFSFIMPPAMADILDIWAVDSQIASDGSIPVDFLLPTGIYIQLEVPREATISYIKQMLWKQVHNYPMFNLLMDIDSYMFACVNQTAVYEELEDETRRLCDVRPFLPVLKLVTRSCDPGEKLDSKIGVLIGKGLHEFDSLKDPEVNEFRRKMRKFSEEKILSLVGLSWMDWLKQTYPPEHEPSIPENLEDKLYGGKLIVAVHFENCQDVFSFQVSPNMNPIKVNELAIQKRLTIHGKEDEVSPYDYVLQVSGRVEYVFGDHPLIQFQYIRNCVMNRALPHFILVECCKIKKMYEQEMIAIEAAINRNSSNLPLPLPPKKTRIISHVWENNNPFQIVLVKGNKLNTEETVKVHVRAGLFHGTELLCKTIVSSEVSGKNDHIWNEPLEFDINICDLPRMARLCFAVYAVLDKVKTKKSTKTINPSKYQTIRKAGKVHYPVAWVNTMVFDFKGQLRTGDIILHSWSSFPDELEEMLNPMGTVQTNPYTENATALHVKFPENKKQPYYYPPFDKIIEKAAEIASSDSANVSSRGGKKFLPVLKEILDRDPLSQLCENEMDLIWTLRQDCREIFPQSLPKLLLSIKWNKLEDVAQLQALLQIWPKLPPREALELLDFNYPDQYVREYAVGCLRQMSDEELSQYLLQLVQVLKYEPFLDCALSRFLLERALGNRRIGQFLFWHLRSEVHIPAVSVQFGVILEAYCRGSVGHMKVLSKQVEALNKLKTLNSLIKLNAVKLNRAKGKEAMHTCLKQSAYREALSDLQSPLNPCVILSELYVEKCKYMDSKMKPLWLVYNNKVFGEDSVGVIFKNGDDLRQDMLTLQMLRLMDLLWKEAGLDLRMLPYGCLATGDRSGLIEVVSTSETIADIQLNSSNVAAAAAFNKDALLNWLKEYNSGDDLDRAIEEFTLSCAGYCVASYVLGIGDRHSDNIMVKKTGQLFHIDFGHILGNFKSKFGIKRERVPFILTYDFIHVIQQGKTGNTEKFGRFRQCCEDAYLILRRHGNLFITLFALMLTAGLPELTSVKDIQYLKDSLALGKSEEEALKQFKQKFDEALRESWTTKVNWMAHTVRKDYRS
PI3K (p110β/p85α) (h), sequence (P27986 whole entry partner): as the sequence (P27986 whole entry partner) above
PI3K (p110α/p85α) (h), sequence (P42336 whole entry, the tested form may be a part): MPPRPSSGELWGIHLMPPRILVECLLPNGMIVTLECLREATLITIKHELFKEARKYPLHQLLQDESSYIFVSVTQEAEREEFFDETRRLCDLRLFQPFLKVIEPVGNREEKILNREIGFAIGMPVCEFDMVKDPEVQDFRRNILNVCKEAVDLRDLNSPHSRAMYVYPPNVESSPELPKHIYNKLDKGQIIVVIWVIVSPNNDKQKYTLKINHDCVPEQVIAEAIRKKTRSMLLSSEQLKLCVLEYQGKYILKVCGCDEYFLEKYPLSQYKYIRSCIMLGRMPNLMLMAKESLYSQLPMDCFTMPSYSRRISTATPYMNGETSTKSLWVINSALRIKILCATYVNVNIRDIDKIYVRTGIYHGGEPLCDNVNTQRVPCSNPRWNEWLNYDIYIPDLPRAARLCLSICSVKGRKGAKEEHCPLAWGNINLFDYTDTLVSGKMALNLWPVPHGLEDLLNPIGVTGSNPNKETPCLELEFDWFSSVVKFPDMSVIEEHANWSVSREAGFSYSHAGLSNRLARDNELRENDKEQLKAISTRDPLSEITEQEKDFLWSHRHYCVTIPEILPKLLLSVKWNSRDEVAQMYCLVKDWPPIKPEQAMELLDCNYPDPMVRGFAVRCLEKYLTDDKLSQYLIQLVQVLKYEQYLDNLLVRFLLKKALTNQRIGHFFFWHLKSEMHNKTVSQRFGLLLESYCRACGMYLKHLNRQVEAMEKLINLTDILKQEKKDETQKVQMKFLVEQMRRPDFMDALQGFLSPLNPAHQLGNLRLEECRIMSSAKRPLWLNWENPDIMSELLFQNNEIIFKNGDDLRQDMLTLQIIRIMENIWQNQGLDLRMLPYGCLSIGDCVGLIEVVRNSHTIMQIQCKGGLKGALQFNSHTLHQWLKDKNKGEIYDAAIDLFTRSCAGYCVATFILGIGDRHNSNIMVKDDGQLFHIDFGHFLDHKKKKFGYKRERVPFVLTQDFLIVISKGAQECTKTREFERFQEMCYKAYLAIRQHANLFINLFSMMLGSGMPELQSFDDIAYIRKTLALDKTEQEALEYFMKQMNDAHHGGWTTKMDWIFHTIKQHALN
PI3K (p110α/p85α) (h), sequence (P27986 whole entry partner, the tested form may be a part): as the sequence (P27986 whole entry partner) above

| Compound | IC50 [1] | IC50 [2] | IC50 [3] | IC50 [4] | CLint scaled at 5 μM [5] | half-life at 5 μM [5] | CLint scaled at 5 μM [6] | half-life at 5 μM [6] |
| --- | --- | --- | --- | --- | --- | --- | --- | --- |
| Cc1noc(-c2c(N)ncnc2N[C@@H](C)c2nc3ccc(F)c(C#CCO)c3c(=O)n2-c2ccccc2)n1 [Example 42, (S)-2-(1-((6-amino-5-(3-methyl-1,2,4-oxadiazol-5-yl)pyrimidin-4-yl)amino)ethyl)-6-fluoro-5-(3-hydroxyprop-1-yn-1-yl)-3-phenylquinazolin-4(3H)-one] | > 3000 nM | 17 nM | 349 nM | 1600 nM | – | – | – | – |
| CC[C@H](Nc1ncnc(N)c1-c1nnc(C)o1)c1nc2cccc(C#CCO)c2c(=O)n1-c1ccccc1 [Example 37, (S)-2-(1-((6-amino-5-(5-methyl-1,3,4-oxadiazol-2-yl)pyrimidin-4-yl)amino)propyl)-5-(3-hydroxyprop-1-yn-1-yl)-3-phenylquinazolin-4(3H)-one] | > 3000 nM | 45 nM | 440 nM | > 3000 nM | 39.8 mL/min/kg | 43.7 min | 113 mL/min/kg | 22 min |
| Cc1noc(-c2c(N)ncnc2N[C@@H](C)c2cc3cccc(C#CCO)c3c(=O)n2C2CC2)n1 [Example 33, (S)-3-(1-((6-amino-5-(3-methyl-1,2,4-oxadiazol-5-yl)-pyrimidin-4-yl)amino)ethyl)-2-cyclopropyl-8-(3-hydroxyprop-1-yn-1-yl)-isoquinolin-1 (2H)-one] | 1000 nM | 11 nM | 118 nM | 104 nM | – | – | – | – |
| CC#Cc1cccc2nc([C@H](CC)Nc3ncnc(N)c3-c3nc(C)no3)n(-c3ccccc3)c(=O)c12 [Example 14, (S)-2-(1-((6-amino-5-(3-methyl-1,2,4-oxadiazol-5-yl)pyrimidin-4-yl)amino)propyl)-3-phenyl-5-(prop-1-yn-1-yl)quinazolin-4(3H)-one] | 1890 nM | 8 nM | 15 nM | 582 nM | 150 mL/min/kg | 11.6 min | 213 mL/min/kg | 11.7 min |
| Cc1noc(-c2c(N)ncnc2N[C@@H](C)c2cc3cccc(C#CCO)c3c(=O)n2-c2ccccc2)n1 [Example 40, (S)-3-(1-((6-amino-5-(3-methyl-1,2,4-oxadiazol-5-yl)pyrimidin-4-yl)amino)ethyl)-8-(3-hydroxyprop-1-yn-1-yl)-2-phenylisoquinolin-1 (2H)-one] | 704 nM | 5 nM | 44 nM | 154 nM | – | – | – | – |
| CC#Cc1cccc2nc([C@H](C)Nc3ncnc(N)c3-c3nc(C)no3)n(-c3ccccc3)c(=O)c12 [Example 9, (S)-2-(1-((6-amino-5-(3-methyl-1,2,4-oxadiazol-5-yl)pyrimidin-4-yl)amino)ethyl)-3-phenyl-5-(prop-1-yn-1-yl)quinazolin-4(3H)-one] | 460 nM | 2 nM | 47 nM | 151 nM | 80.5 mL/min/kg | 21.6 min | 85.2 mL/min/kg | 29.2 min |

Second part, the compound after the results:

| IC50 [1] | IC50 [2] | IC50 [3] | IC50 [4] | CLint scaled at 5 μM [5] | half-life at 5 μM [5] | CLint scaled at 5 μM [6] | half-life at 5 μM [6] | Compound |
| --- | --- | --- | --- | --- | --- | --- | --- | --- |
| 2400 nM | 17 nM | 512 nM | 1870 nM | 20.8 mL/min/kg | 83.7 min | 28 mL/min/kg | 88.7 min | Cc1noc(-c2c(N)ncnc2N[C@@H](C)c2nc3cccc(C#CC(C)O)c3c(=O)n2-c2ccccc2)n1 (stereo partly drawn) [Example 5, 2-((S)-1-((6-amino-5-(3-meth-1,2,4-oxadiazol-5-1)pyrimidin-4-1)amino)ethyl)-5-(3-hydroxybut-1-yn-1-yl)-3-phenylquinazolin-4(3H)-one] |
| 2660 nM | 10 nM | 30 nM | 395 nM | 98.3 mL/min/kg | 17.7 min | 138 mL/min/kg | 18 min | CC[C@H](Nc1ncnc(N)c1-c1nc(C)no1)c1nc2cccc(C#CCO)c2c(=O)n1-c1ccccc1 [Example 36, (S)-2-(1-((6-amino-5-(3-methyl-1,2,4-oxadiazol-5-yl)pyrimidin-4-yl)amino)propyl)-5-(3-hydroxyprop-1-yn-1-yl)-3-phenylquinazolin-4(3H)-one] |
| > 3000 nM | 24 nM | 77 nM | 119 nM | 72.2 mL/min/kg | 24.1 min | 88.8 mL/min/kg | 28 min | CC[C@H](Nc1ncnc(N)c1-c1nc(C)no1)c1nc2cccc(C#CCO)c2c(=O)n1C1CC1 [Example 29, (S)-2-(1-((6-amino-5-(3-methyl-1,2,4-oxadiazol-5-yl)pyrimidin-4-yl)amino)propyl)-3-cyclopropyl-5-(3-hydroxyprop-1-yn-1-yl)quinazolin-4(3H)-one] |
| > 3000 nM | 27 nM | 704 nM | > 3000 nM | – | – | – | – | CC#Cc1cccc2nc([C@H](CC)Nc3ncnc(N)c3-c3nnc(C)o3)n(-c3ccccc3)c(=O)c12 [Example 15, (S)-2-(1-((6-amino-5-(5-methyl-1,3,4-oxadiazol-2-yl)pyrimidin-4-yl)amino)propyl)-3-phenyl-5-(prop-1-yn-1-yl)quinazolin-4(3H)-one] |
| 2800 nM | 6 nM | 340 nM | 548 nM | – | – | – | – | CC#Cc1cccc2nc([C@H](C)Nc3ncnc(N)c3-c3nnc(C)o3)n(-c3ccccc3)c(=O)c12 [Example 10, (S)-2-(1-((6-amino-5-(5-methyl-1,3,4-oxadiazol-2-yl)pyrimidin-4-yl)amino)ethyl)-3-phenyl-5-(prop-1-yn-1-yl)quinazolin-4(3H)-one] |
